Reference: patent US20230101236A1, “COSMETIC COMPOSITION” (GIVAUDAN SA, priority 2020, published 2023)

Test system: skin microbiome
Assay: Conversion of crocin to crocetin by the skin microbiome (in vitro)
Type: in vitro ADME
Description: Sampling of skin microbiome was performed on 7 volunteers with a sterile gauze impregnated with NaCl in 5 areas: forehead, cheek, nose, neck, forearm. All samples were combined to obtain a representative skin microbiota composition. The thus obtained microbiome was cultured in liquid medium (buffered HT medium) at 30° C. in the presence of crocin. Supernatants were collected regularly and analyzed by HPLC-MS to detect crocin and crocetin.

For `CC(/C=C/C=C(\C)C(=O)O)=C\C=C\C=C(C)\C=C\C=C(/C)C(=O)O` [Crocetin], the “concentration, % of maximum concentration detected” value (“concentration, %” for short) (skin microbiome culture with crocin, 42 h) was 0.7%, the “concentration, %” value (skin microbiome culture with crocin, 66 h) was 7.9% and the “concentration, %” value (skin microbiome culture with crocin, 90 h) was 30.5%. The “concentration, %” value (skin microbiome culture with crocin, 162 h) was 65.3%, the “concentration, %” value (skin microbiome culture with crocin, 186 h) was 101.3% and the “concentration, %” value (skin microbiome culture with crocin, 210 h) was 101.3%.

`CC(/C=C/C=C(\C)C(=O)O[C@@H]1O[C@H](CO[C@@H]2O[C@H](CO)[C@@H](O)[C@H](O)[C@H]2O)[C@@H](O)[C@H](O)[C@H]1O)=C\C=C\C=C(C)\C=C\C=C(/C)C(=O)O[C@@H]1O[C@H](CO[C@@H]2O[C@H](CO)[C@@H](O)[C@H](O)[C@H]2O)[C@@H](O)[C@H](O)[C@H]1O` [Crocin] was tested, and the “time for complete transformation to crocetin” value (human) was at most 210 h, the “concentration, %” value (human, 0 h) was 100% and the “concentration, %” value (human, 18 h) was 100%. The “concentration, %” value (human, 42 h) was 47.5%, the “concentration, %” value (human, 66 h) was 2.9% and the “concentration, %” value (human, 90 h) was 0.1%.
